From BindingDB's records for doi:10.1021/jm00053a012 (Washington University, 1993)
pIC50: −log10 of the molar value.

Target: calcium-independent phospholipase A2 (Canis familiaris)
Experiment: Compounds were evaluated for the inhibitory activity against canine myocardial cytosolic calcium-independent phospholipase A2.

pIC50 | SMILES
7.52 | O=C1O/C(=C/I)CCC1c1cccc2ccccc12 (configuration not stated) [(E)-6-Iodomethylene-3-naphthalen-1-yl-tetrahydro-pyran-2-one]
6.72 | O=C1O/C(=C\I)CCC1c1cccc2ccccc12 (configuration not stated) [(Z)-6-(iodomethylene)-3-(naphthalen-1-yl)tetrahydro-2H-pyran-2-one]
